# Test results as given in ChEMBL document CHEMBL4665709, “Rational Avoidance of Protease Cleavage Sites and Symmetrical End-Tagging Significantly Enhances the Stability and Therapeutic Potential of Antimicrobial Peptides” (J Med Chem, 2020).
# Where a SMILES comes first, the peptide text is derived from it.
# What was measured:
# Staphylococcus aureus [1] = experiment: Antibacterial activity against methicillin-resistant Staphylococcus aureus 43300 after 18 to 24 hrs by CLSI-based broth microdilution method; format: functional; conditions: time hrs 18-24
# Staphylococcus aureus [2] = experiment: Antibacterial activity against Staphylococcus aureus 11011 after 18 to 24 hrs by CLSI-based broth microdilution method; format: functional; conditions: time hrs 18-24
# [3] = Therapeutic index, ratio of MHC for human RBC to geometric mean of peptide MIC for Escherichia coli UB1005; format: toxicity; conditions: human red blood cells (RBC), read-out: TI
# [4] = Cytotoxicity against mouse RAW264.7 cells assessed as cell viability at 128 uM by MTT assay relative to control; format: cell-based; conditions: read-out: Activity
# Escherichia coli [5] = experiment: Antibacterial activity against Escherichia coli ATCC 25922 after 18 to 24 hrs in presence of 100% human serum by CLSI-based broth microdilution method; format: functional; conditions: time hrs 18-24
# Staphylococcus aureus [6] = experiment: Antibacterial activity against Staphylococcus aureus ATCC 29213 after 18 to 24 hrs in presence of 6 uM Fe3+ by CLSI-based broth microdilution method; format: functional; conditions: time hrs 18-24
# Salmonella typhimurium [7] = experiment: Antibacterial activity against Salmonella typhimurium 7731 after 18 to 24 hrs by CLSI-based broth microdilution method; format: functional, Salmonella enterica subsp. enterica serovar Typhimurium; conditions: Salmonella enterica, time hrs 18-24
# [8] = Therapeutic index, ratio of MHC for human RBC to geometric mean of peptide MIC for Salmonella typhimurium 14028; format: toxicity; conditions: human red blood cells (RBC), read-out: TI
# [9] = Therapeutic index, ratio of MHC for human RBC to geometric mean of peptide MIC for Salmonella typhimurium 7731; format: toxicity; conditions: human red blood cells (RBC), read-out: TI
# Salmonella enterica = experiment: Antibacterial activity against Salmonella choleraesuis 503 after 18 to 24 hrs by CLSI-based broth microdilution method; format: functional; conditions: time hrs 18-24
# Escherichia coli [10] = experiment: Antibacterial activity against Escherichia coli ATCC 25922 after 18 to 24 hrs in presence of 150 mM Na+ by CLSI-based broth microdilution method; format: functional; conditions: time hrs 18-24
# Staphylococcus aureus [11] = experiment: Antibacterial activity against Staphylococcus aureus ATCC 29213 after 18 to 24 hrs in presence of 6 uM NH4+ by CLSI-based broth microdilution method; format: functional; conditions: time hrs 18-24
# Salmonella typhimurium [12] = experiment: Antibacterial activity against Salmonella typhimurium 14028 after 18 to 24 hrs by CLSI-based broth microdilution method; format: functional, Salmonella enterica subsp. enterica serovar Typhimurium; conditions: Salmonella enterica, time hrs 18-24
# Escherichia coli [13] = experiment: Antibacterial activity against Escherichia coli ATCC 25922 after 18 to 24 hrs in presence of 1 mM Mg2+ by CLSI-based broth microdilution method; format: functional; conditions: time hrs 18-24
# Staphylococcus aureus [14] = experiment: Antibacterial activity against Staphylococcus aureus ATCC 29213 after 18 to 24 hrs in presence of 150 mM Na+ by CLSI-based broth microdilution method; format: functional; conditions: time hrs 18-24
# Escherichia coli [15] = experiment: Antibacterial activity against Escherichia coli ATCC 25922 after 18 to 24 hrs in presence of 8 uM Zn2+ by CLSI-based broth microdilution method; format: functional; conditions: time hrs 18-24
# Escherichia coli [16] = experiment: Antibacterial activity against Escherichia coli ATCC 25922 after 18 to 24 hrs by CLSI-based broth microdilution method; format: functional; conditions: time hrs 18-24
# [17] = Therapeutic index, ratio of MHC for human RBC to geometric mean of peptide MIC for Salmonella pullorum 7913; format: toxicity; conditions: human red blood cells (RBC), read-out: TI
# Escherichia coli [18] = experiment: Antibacterial activity against Escherichia coli ATCC 25922 after 18 to 24 hrs in presence of 25% human serum by CLSI-based broth microdilution method; format: functional; conditions: time hrs 18-24
# Streptococcus agalactiae = experiment: Antibacterial activity against Streptococcus agalactiae H92 after 18 to 24 hrs by CLSI-based broth microdilution method; format: functional; conditions: time hrs 18-24
# [19] = Therapeutic index, ratio of MHC for human RBC to geometric mean of peptide MIC for Escherichia coli ATCC 25922; format: toxicity; conditions: human red blood cells (RBC), read-out: TI
# Staphylococcus aureus [20] = experiment: Antibacterial activity against Staphylococcus aureus ATCC 29213 after 18 to 24 hrs by CLSI-based broth microdilution method; format: functional; conditions: time hrs 18-24
# Escherichia coli [21] = experiment: Antibacterial activity against Escherichia coli ATCC 25922 after 18 to 24 hrs in presence of 6 uM Fe3+ by CLSI-based broth microdilution method; format: functional; conditions: time hrs 18-24
# Staphylococcus aureus [22] = experiment: Antibacterial activity against Staphylococcus aureus ATCC 29213 after 18 to 24 hrs in presence of 50% human serum by CLSI-based broth microdilution method; format: functional; conditions: time hrs 18-24
# Staphylococcus aureus [23] = experiment: Antibacterial activity against Staphylococcus aureus ATCC 29213 after 18 to 24 hrs in presence of 100% human serum by CLSI-based broth microdilution method; format: functional; conditions: time hrs 18-24
# Staphylococcus aureus [24] = experiment: Antibacterial activity against Staphylococcus aureus ATCC 29213 after 18 to 24 hrs in presence of 8 uM Zn2+ by CLSI-based broth microdilution method; format: functional; conditions: time hrs 18-24
# [25] = Antibacterial activity against Salmonella pullorum 7913 after 18 to 24 hrs by CLSI-based broth microdilution method; format: functional, Salmonella enterica subsp. enterica serovar Pullorum; conditions: Salmonella enterica, time hrs 18-24
# [26] = Hemolytic activity in human RBC assessed as hemolysis at 1 to 128 uM relative to control; format: ADME, cell-based, Erythrocyte; conditions: human red blood cells (RBC), dose 1-128 µM, read-out: Activity
# Escherichia coli [27] = experiment: Antibacterial activity against Escherichia coli ATCC 25922 after 18 to 24 hrs in presence of 6 uM NH4+ by CLSI-based broth microdilution method; format: functional; conditions: time hrs 18-24
# [28] = Therapeutic index, ratio of MHC for human RBC to geometric mean of peptide MIC for methicillin-resistant Staphylococcus aureus 43300; format: toxicity; conditions: human red blood cells (RBC), read-out: TI
# Staphylococcus aureus [29] = experiment: Antibacterial activity against Staphylococcus aureus ATCC 29213 after 18 to 24 hrs in presence of 1 mM Mg2+ by CLSI-based broth microdilution method; format: functional; conditions: time hrs 18-24
# [30] = tested on: Staphylococcus epidermidis; experiment: Antibacterial activity against Staphylococcus epidermidis ATCC 12228 after 18 to 24 hrs by CLSI-based broth microdilution method; format: functional; conditions: time hrs 18-24
# [31] = Therapeutic index, ratio of MHC for human RBC to geometric mean of peptide MIC for Staphylococcus aureus ATCC 29213; format: toxicity; conditions: human red blood cells (RBC), read-out: TI
# [32] = Stability of compound at 100 degreeC after 30 to 90 mins; format: physicochemical; conditions: time 30-90 min
# Enterococcus faecalis = experiment: Antibacterial activity against Enterococcus faecalis ATCC 29212 after 18 to 24 hrs by CLSI-based broth microdilution method; format: functional; conditions: time hrs 18-24
# [33] = Cytotoxicity against HEK-293T cells assessed as cell viability at 128 uM by MTT assay relative to control; format: cell-based; conditions: human, read-out: Activity
# [34] = Therapeutic index, ratio of MHC for human RBC to geometric mean of peptide MIC for Enterococcus faecalis ATCC 29212; format: toxicity; conditions: human red blood cells (RBC), read-out: TI
# Erythrocyte = experiment: Hemolytic activity in human RBC assessed as hemolysis; format: ADME, cell-based
# [35] = Therapeutic index, ratio of MHC for human RBC to geometric mean of peptide MIC for Staphylococcus aureus 11011; format: toxicity; conditions: human red blood cells (RBC), read-out: TI
# Staphylococcus aureus [36] = experiment: Antibacterial activity against Staphylococcus aureus ATCC 29213 after 18 to 24 hrs in presence of 4.5 mM K+ by CLSI-based broth microdilution method; format: functional; conditions: time hrs 18-24
# [37] = Therapeutic index, ratio of MHC for human RBC to geometric mean of peptide MIC for Salmonella choleraesuis 503; format: toxicity; conditions: human red blood cells (RBC), read-out: TI
# Escherichia coli [38] = experiment: Antibacterial activity against Escherichia coli ATCC 25922 after 18 to 24 hrs in presence of 50% human serum by CLSI-based broth microdilution method; format: functional; conditions: time hrs 18-24
# Escherichia coli [39] = experiment: Antibacterial activity against Escherichia coli ATCC 25922 after 18 to 24 hrs in presence of 4.5 mM K+ by CLSI-based broth microdilution method; format: functional; conditions: time hrs 18-24
# Escherichia coli [40] = experiment: Antibacterial activity against Escherichia coli UB1005 after 18 to 24 hrs by CLSI-based broth microdilution method; format: functional; conditions: time hrs 18-24
# Staphylococcus aureus [41] = experiment: Antibacterial activity against Staphylococcus aureus ATCC 29213 after 18 to 24 hrs in presence of 25% human serum by CLSI-based broth microdilution method; format: functional; conditions: time hrs 18-24
# [42] = Therapeutic index, ratio of MHC for human RBC to geometric mean of peptide MIC for Staphylococcus epidermidis ATCC 12228; format: toxicity; conditions: human red blood cells (RBC), read-out: TI
# [43] = Therapeutic index, ratio of MHC for human RBC to geometric mean of peptide MIC for Streptococcus agalactiae H92; format: toxicity; conditions: human red blood cells (RBC), read-out: TI
smiles,measurement,setting,value
CC[C@H](C)[C@H](N)C(=O)N[C@@H](CS)C(=O)N[C@@H](CCCNC(=N)N)C(=O)N[C@@H](CCCCN)C(=O)N1CCC[C@H]1C(=O)N[C@H](C(=O)N[C@H](C(=O)N[C@@H](CS)C(=O)N[C@@H](CCCNC(=N)N)C(=O)N[C@@H](CCCCN)C(=O)N1CCC[C@H]1C(=O)N[C@H](C(=O)N[C@H](C(=O)N[C@@H](CS)C(=O)N[C@@H](CCCNC(=N)N)C(=O)N[C@@H](CCCCN)C(=O)N1CCC[C@H]1C(=O)N[C@H](C(=O)N[C@H](C(=O)N[C@@H](CS)C(=O)N[C@@H](CCCNC(=N)N)C(=O)N[C@@H](CCCCN)C(=O)N1CCC[C@H]1C(=O)N[C@H](C(N)=O)[C@@H](C)CC)[C@@H](C)CC)[C@@H](C)CC)[C@@H](C)CC)[C@@H](C)CC)[C@@H](C)CC)[C@@H](C)CC (H-ICRKPIICRKPIICRKPIICRKPI-NH2),MIC,Staphylococcus aureus [1],> 64 µM
same,MIC,Staphylococcus aureus [2],> 64 µM
same,selectivity ratio,[3],32
same,viability at 128 µM,[4],> 90%
same,MIC,Escherichia coli [5],16 µM
same,MIC,Staphylococcus aureus [6],> 64 µM
same,MIC,Salmonella typhimurium [7],4 µM
same,selectivity ratio,[8],32
same,selectivity ratio,[9],32
same,MIC,Salmonella enterica,8 µM
same,MIC,Escherichia coli [10],32 µM
same,MIC,Staphylococcus aureus [11],> 64 µM
same,MIC,Salmonella typhimurium [12],2 µM
same,MIC,Escherichia coli [13],8 µM
same,MIC,Staphylococcus aureus [14],> 64 µM
same,MIC,Escherichia coli [15],2 µM
same,MIC,Escherichia coli [16],2 µM
same,selectivity ratio,[17],32
same,MIC,Escherichia coli [18],4 µM
same,MIC,Streptococcus agalactiae,> 64 µM
same,selectivity ratio,[19],32
same,MIC,Staphylococcus aureus [20],> 64 µM
same,MIC,Escherichia coli [21],4 µM
same,MIC,Staphylococcus aureus [22],> 64 µM
same,MIC,Staphylococcus aureus [23],> 64 µM
same,MIC,Staphylococcus aureus [24],> 64 µM
same,MIC,[25],16 µM
same,hemolysis at up to 128 µM,[26],< 5%
same,MIC,Escherichia coli [27],2 µM
same,selectivity ratio,[28],2
same,MIC,Staphylococcus aureus [29],> 64 µM
same,MIC,[30],> 64 µM
same,selectivity ratio,[31],2
same,Stabilty,[32],Stable
same,MIC,Enterococcus faecalis,> 64 µM
same,viability at 128 µM,[33],> 90%
same,selectivity ratio,[34],2
same,MHC,Erythrocyte,> 128 µM
same,selectivity ratio,[35],2
same,MIC,Staphylococcus aureus [36],> 64 µM
same,selectivity ratio,[37],32
same,MIC,Escherichia coli [38],8 µM
same,MIC,Escherichia coli [39],4 µM
same,MIC,Escherichia coli [40],2 µM
same,MIC,Staphylococcus aureus [41],> 64 µM
same,selectivity ratio,[42],2
same,selectivity ratio,[43],2
